The values that follow come from the METLIN SMRT retention time set (Domingo-Almenara et al. 2019).

A short description of the data set: gradient 5% acetonitrile 3 min, to 50% in 2 min, to 85% in 15 min, held 3 min, 100 µL/min. The settings on record: column: Zorbax Extend-C18 2.1 x 50 mm; eluents: water / acetonitrile, 0.1% formic acid. The method, boiled down: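 The system's dead and dwell volumes were 40 μL and 900 μL, with a Zorbax Extend-C18 column (2.1 × 50 mm, 1.8 μm) run at 100 μL/min in water and acetonitrile containing 0.1% formic acid each. Pure standards were analyzed in mixtures of ~100 molecules by HPLC–quadrupole time-of-flight mass spectrometry in positive and negative ionization mode. Retention time was assigned from computationally picked, manually inspected adduct peaks.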
Regarding `COc1cc(OC)c(NC(=O)C2=C(C)C(=O)OC23CCN(C(C)=O)CC3)cc1Cl`, the RP-LC retention time turned out to be 730 s.

For the molecule `CC1CCN(S(=O)(=O)c2ccc3c(c2)CCCC(=O)N3CC(=O)NCc2ccccc2)CC1`, the RP-LC retention time came out at 907 s.

With `Cc1ccc(F)cc1NS(=O)(=O)c1cc2n(c1)CCCNC2=O`, the RP-LC retention time came out at 671 s.

Molecule `CCCSCCCNC(=O)Cn1cnc2nc3c(cc2c1=O)CCCC3` showed an RP-LC retention time of 739 s.

As for `O=C(C1CCCN(S(=O)(=O)c2cc(-c3noc(C4CCCC4)n3)cs2)C1)N1CCOCC1` (stereo unspecified), the RP-LC retention time came out at 966 s.

In turn, `O=C(NCC(O)c1cccc2ccccc12)c1ccccc1C(F)(F)F` (stereo unspecified) returned an RP-LC retention time of 814 s.

`Cn1c(=O)c2cc(C(=O)NCCc3ccncc3)nn2c2ccccc21` came in with an RP-LC retention time of 584 s.

`CC(C)c1cccc(N2C=C(C(=O)N3CCOCC3)S(=O)(=O)c3ccccc32)c1` registered an RP-LC retention time of 878 s.

In the case of `Cc1nnc([C@@H]2CC(F)(F)CN2C(=O)Cc2c[nH]c3ccccc23)o1`, the RP-LC retention time turned out to be 723 s.

The molecule `Cc1ccccc1NC(=O)Cc1cccn1-c1ccc(Cl)cc1` had an RP-LC retention time of 1040 s.

The molecule `Cc1cc(NC(=O)C2CCCN(c3ncnc4c3nc3n4CCCCC3)C2)no1` (stereo unspecified) yielded an RP-LC retention time of 751 s.

On to `CC(C)Cn1nc2n(c1=O)CCN(S(=O)(=O)c1cc(F)ccc1F)CC2`, for which the RP-LC retention time worked out at 802 s.

On to `COC(=O)C(C)NC(=O)N1CCC2(CC1)NC(=O)c1ccccc1O2` (stereo unspecified), for which the RP-LC retention time stood at 621 s.

Consider `CCc1nccn1Cc1noc(-c2cccs2)n1`, for which the RP-LC retention time is 593 s.

The molecule `O=C(Nc1ccc(Br)cc1F)N1CCC(n2cnc3cccnc32)CC1` came in with an RP-LC retention time of 690 s.

`CCC(C(=O)NCCN1CCCC1)n1c2ccccc2c2cnn(C)c(=O)c21` (stereo unspecified) displayed an RP-LC retention time of 632 s.

`Cc1cc(C)c(NC(=O)C2CCN(S(C)(=O)=O)c3ccccc3O2)c(C)c1` (stereo unspecified) gave an RP-LC retention time of 900 s.

`N=C(N)SCCc1ccc(OCc2ccc([N+](=O)[O-])cc2)cc1`: the RP-LC retention time was 787 s.

For the molecule `Cc1nnc2n1CCC(NC(=O)CC1=CCCCC1)CC2` (stereo unspecified), the RP-LC retention time amounted to 605 s.

On to `COc1ccc(NC(=O)C2CCN(c3nccnc3Sc3ccccc3)CC2)cc1Cl`, for which the RP-LC retention time came to 1100 s.

For the molecule `CCc1ccc(CNC(=O)Cn2ccc3ccc(N4CCOCC4)nc32)cc1`, the RP-LC retention time came out at 969 s.

In turn, `Cc1ccc(C)c(-n2ccn(Cc3nc(-c4ccc(F)c(Cl)c4)no3)c(=O)c2=O)c1` registered an RP-LC retention time of 1010 s.

The molecule `CCCCn1c(=O)c2ccccc2n(Cc2nc(-c3ccc(CC)cc3)no2)c1=O` gave an RP-LC retention time of 1310 s.

With `Cn1cccc1C(=O)C(=O)Nc1ccc(Cl)cc1F`, the RP-LC retention time is 1080 s.

As for `COc1ccccc1NC(=O)N1CCC(CNC(=O)c2cc(Cl)ccc2Cl)CC1`, the RP-LC retention time was determined as 811 s.

Molecule `O=C(CC1CCCCC1)N1CCN(c2ccc(=O)n(-c3ccccc3)n2)CC1` registered an RP-LC retention time of 857 s.

`CCc1ccc(N2CC(c3noc(-c4ccc(C)cc4)n3)CC2=O)cc1` (stereo unspecified) returned an RP-LC retention time of 1170 s.

As for `CNC(=O)C1CCCN(c2nc3ncn(CC(=O)Nc4cc(F)cc(F)c4)c(=O)c3s2)C1` (stereo unspecified), the RP-LC retention time was 681 s.

The molecule `Cc1sc(-c2noc(C3CC3)n2)cc1S(=O)(=O)N1CCC(C(=O)NC2CCCCC2)CC1` came in with an RP-LC retention time of 1020 s.

The molecule `CCn1c(CNC(=O)C2CCC2)nc2c1CN(C(=O)c1ccc(OC)cc1)CC2` came in with an RP-LC retention time of 612 s.

Take `COc1ccc(-c2cn3cccnc3n2)cc1NC(=O)c1ccc(F)c(F)c1`: the RP-LC retention time is 718 s.

On to `COc1ccc(-c2noc(C3CC(=O)N(c4cccc(Cl)c4)C3)n2)c(OC)c1` (stereo unspecified), for which the RP-LC retention time was 878 s.

`Cc1ccnc(NS(=O)(=O)c2ccc(N)cc2)n1` showed an RP-LC retention time of 652 s.

In turn, `COc1ccc(-c2noc(CN3C(=O)COc4cc(C)ccc43)n2)cc1` yielded an RP-LC retention time of 1030 s.

For `O=C(COc1ccccc1)N1CCC(c2noc(-c3ccncc3)n2)C1` (stereo unspecified), the RP-LC retention time was determined as 737 s.

Turning to `COc1cc(NC(=O)C2CCCN(c3nnc4ccc(Cl)cn34)C2)cc(OC)c1OC` (stereo unspecified), the RP-LC retention time is 734 s.

`Cc1ccc2[nH]cc(NC(=O)NCCN(C)C)c(=O)c2c1`: the RP-LC retention time is 563 s.

In the case of `Cc1ccc(C)c(-c2csc(Nc3ccc(Br)cn3)n2)c1`, the RP-LC retention time was 1330 s.

`Cc1cc(C)cc(-n2ccnc2SCC(=O)Nc2cc(C)on2)c1` showed an RP-LC retention time of 755 s.

The molecule `O=C(NCCCn1c(-c2ccncc2)nc2cccnc21)Nc1cccc(C(F)(F)F)c1` yielded an RP-LC retention time of 725 s.

The molecule `CCC(=O)N1CCc2sc(C(=O)N3CCN(c4ccc(OC)cc4)CC3)cc2C1` showed an RP-LC retention time of 717 s.

In the case of `CCOc1ccc(NC(=O)Cc2cn(C)c3ncccc23)cc1`, the RP-LC retention time turned out to be 712 s.

As for `COCCOCC(=O)NCC1CCCCC(=O)N1` (stereo unspecified), the RP-LC retention time was 576 s.

Turning to `CCC(=Cc1ccc(CC)cn1)CC`, the RP-LC retention time amounted to 686 s.

In turn, `CCc1noc(-c2ccnc(-n3ncc(C(=O)N4CCCC4)c3C)c2)n1` showed an RP-LC retention time of 840 s.

Regarding `COc1ccc(OC)c(NC(=O)CSc2cc(N3CCN(c4ccccc4OC)CC3)ncn2)c1`, the RP-LC retention time is 791 s.

In turn, `COC(=O)c1ccc2c(=O)n(-c3cc(F)cc(F)c3)c(N3CCCCC3)nc2c1` had an RP-LC retention time of 1180 s.

`CCc1cc(=O)n(CC(=O)NCc2ccc(F)c(Cl)c2)c(N2CCOCC2)n1` showed an RP-LC retention time of 764 s.

Molecule `CC(C)C(=O)N1CC(c2noc(C3CCCN3CC3CC3)n2)C1` (stereo unspecified) had an RP-LC retention time of 579 s.

`N#Cc1ccc(C(=O)Nc2cccc(-c3nnc4n3CCCC4)c2)cc1` returned an RP-LC retention time of 665 s.

With `O=C(CSc1nccn1Cc1ccc(Cl)cc1)NCCc1ccccc1`, the RP-LC retention time stood at 644 s.

As for `Cc1nn(C(C)C(=O)NCCCN2CCOCC2)c(=O)c2c(C)n(-c3ccccc3)nc12` (stereo unspecified), the RP-LC retention time is 615 s.

The molecule `CSc1ccccc1CN1CCC(CNC(=O)C(=O)NCCC2=CCCCC2)CC1` returned an RP-LC retention time of 622 s.

For `CC(=O)NCc1ccc(-c2noc(Cc3ccc(Br)cc3)n2)s1`, the RP-LC retention time came to 890 s.

`O=C(CC1CCCCN1S(=O)(=O)c1ccc(Cl)cc1)NCc1ccco1` (stereo unspecified) yielded an RP-LC retention time of 852 s.

`O=C(c1nnc(-c2csc(S(=O)(=O)N3CCN(c4ncccn4)CC3)c2)o1)N1CCCCC1` gave an RP-LC retention time of 881 s.

In turn, `CCOc1ccc(CC(=O)NCC2CCN(Cc3ccco3)CC2)cc1` showed an RP-LC retention time of 558 s.

`COc1cccc(NC(=O)c2cccn2Cc2noc(C)n2)c1` displayed an RP-LC retention time of 792 s.

The molecule `Cc1ccc(N2CCOCC2)c2c1C(=O)c1ccccc1C2=O` showed an RP-LC retention time of 927 s.

The molecule `Cn1ncc2c3ccccc3n(CC(=O)NCCc3cccs3)c2c1=O` came in with an RP-LC retention time of 784 s.

The molecule `CCc1ccc(-c2noc(Cn3nc(-c4ccc5c(c4)OCO5)ccc3=O)n2)cc1` yielded an RP-LC retention time of 1200 s.

Take `O=C(CCCN1CCC(O)(c2cccc(C(F)(F)F)c2)CC1)c1ccc(F)cc1`: the RP-LC retention time came to 805 s.

For `Cc1ccccc1NC(=O)N1CCCC(Cn2cnc3cccnc32)C1` (stereo unspecified), the RP-LC retention time was 659 s.

For the molecule `CCc1ccccc1NC(=O)N(C)CC1CCOCC1`, the RP-LC retention time was 730 s.

`Cc1nn(C(C)C(=O)NCCCN2CCC(N3CCCCC3)CC2)c(=O)c2c1sc1ccccc12` (stereo unspecified) registered an RP-LC retention time of 592 s.

Turning to `COc1cccc(NC(=O)N2CCC3(CC2)NC(=O)c2ccc(Cl)cc2N3C)c1`, the RP-LC retention time was 780 s.

Molecule `COCCNC(=O)C1CCN(c2nc3ccc(-c4cccnc4)nc3s2)CC1` returned an RP-LC retention time of 578 s.

As for `CCOC(=O)c1ccc(Nc2c(-c3ccc(OC)cc3)nc3cnccn23)cc1`, the RP-LC retention time stood at 641 s.

`CCOc1ccccc1NS(=O)(=O)c1cc(-c2nc(C(C)(C)C)cs2)cs1`: the RP-LC retention time worked out at 1310 s.

In turn, `CCOc1ccc(S(=O)(=O)N2CCC(C(=O)NCCC3=CCCCC3)CC2)cc1` gave an RP-LC retention time of 953 s.

On to `O=C(COc1ccc(Br)cc1)NCc1ccc2c(c1)OCCCO2`, for which the RP-LC retention time was determined as 933 s.

Take `COc1ccc(F)cc1S(=O)(=O)N1CCC(F)(c2nc(CC(C)C)no2)CC1`: the RP-LC retention time came out at 1120 s.

In the case of `c1ccc(CCc2nc3nccc(-c4ccc5c(c4)OCCCO5)n3n2)cc1`, the RP-LC retention time amounted to 984 s.

`CCn1c(C)c(CCC(=O)Nc2ccc(C)c(C)c2)c(=O)n2nc(-c3ccccc3)nc12` displayed an RP-LC retention time of 935 s.

Turning to `Cc1noc(C)c1-c1ccc(S(=O)(=O)Nc2ccc(C(F)(F)F)cc2)cc1`, the RP-LC retention time was found to be 1020 s.

For the molecule `Brc1cn2c(Nc3ccc4c(c3)OCO4)c(-c3ccccc3)nc2cn1`, the RP-LC retention time is 940 s.

`Cc1ccccc1CC(=O)N1CCC2(CC1)NC(=O)c1ccc(F)cc1N2C` gave an RP-LC retention time of 798 s.

For the molecule `CC(C)NC(=O)c1nnn(-c2ccccc2)c1-c1cccnc1`, the RP-LC retention time was found to be 713 s.

As for `Cc1ccccc1CN1CCN(CC(=O)NC2CCN(Cc3ccccc3)CC2)C(=O)C1=O`, the RP-LC retention time amounted to 633 s.

As to `O=C(NCCc1c[nH]c2ccc(Cl)cc12)c1ccncc1`, the RP-LC retention time is 639 s.

Molecule `CCC(C)c1ccc(NC(=O)c2nn(C)cc2Cl)cc1` (stereo unspecified) registered an RP-LC retention time of 1100 s.
